Values after ≈ are worked out from the molar mass of the structure shown. Read-outs that look alike come from different tables or passages of the source. Numbered stars: 1 amine (or outer) side, 2 acyl side, 3 side chain; on linkers, the order of the positions; unused ones are H or OH. Square brackets hold non-standard residues; d marks the D form. Peptide text beside a SMILES is read from it. X13 = C[C@H](CCN(Cc1ccccn1)Cc1ccccn1)[C@@H](O)[C@H](C(=O)[*:2])N(C)[*:1]; X28 = C[C@H](CCN1CCC(c2ccccc2)CC1)[C@@H](O)[C@H](C(=O)[*:2])N(C)[*:1]; X22 = C[C@H](Cc1nc2ccccc2[nH]1)[C@@H](O)[C@H](C(=O)[*:2])N(C)[*:1]; X32 = CC(=O)N(CC[C@@H](C)[C@@H](O)[C@H](C(=O)[*:2])N(C)[*:1])C(C)C; X29 = C[C@H](CCN(C)Cc1ccccn1)[C@@H](O)[C@H](C(=O)[*:2])N(C)[*:1]; X9 = C[C@H](CC(=O)NCc1ccccc1)[C@@H](O)[C@H](C(=O)[*:2])N(C)[*:1]; X27 = C[C@H](CCN(C)c1ccccn1)[C@@H](O)[C@H](C(=O)[*:2])N(C)[*:1]; X6 = C[C@H](CCN1CCOC[C@H]1C)[C@@H](O)[C@H](C(=O)[*:2])N(C)[*:1]; X15 = C[C@H](CCN1CCCCC1CO)[C@@H](O)[C@H](C(=O)[*:2])N(C)[*:1]; X18 = C[C@H](CCNCc1ccccc1)[C@@H](O)[C@H](C(=O)[*:2])N(C)[*:1]; X25 = CC(C)NCC[C@@H](C)[C@@H](O)[C@H](C(=O)[*:2])N(C)[*:1]; d(aThr) = C[C@@H](O)[C@@H](N)C(=O)O; NMeL = CN[C@@H](CC(C)C)C(=O)O; dNMeL = CN[C@H](CC(C)C)C(=O)O; dNMeV = CN[C@@H](C(=O)O)C(C)C; Hiv = CC(C)[C@H](O)C(=O)O; Sar = CNCC(=O)O
Legend:
cyclophilin A (Cyp A) = molecular target: T1, cyclophilin A (Cyp A) (Homo sapiens, UniProt P62937); assay: Protease-free PPIase assay, cyclophilin A; format: biochemical
T1 construct: purchased Sigma C3805
In short: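 Protease-free cis-trans isomerisation: 2 nM recombinant human cyclophilin A with 60 μM succinimide-peptide substrate in 35 mM HEPES pH 7.8 plus DTT, at 10.0 °C, max 0.5% DMSO. Absorbance at 330 nm was fitted to first-order kinetics, background subtracted, and catalytic rates versus inhibitor concentration gave Ki.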

cyclophilin D (Cyp D) = cyclophilin D (Cyp D) (Homo sapiens, UniProt P30405); assay: Protease-free PPIase assay, cyclophilin D; format: biochemical
In short: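 Cis-trans isomerization of a succinimide-peptide substrate (60 µM final) by 2 nM enzyme was followed at 330 nm in 35 mM HEPES pH 7.8 with 50 µM DTT, stirred at 10.0 °C, DMSO ≤0.5%. First-order rate constants minus background were fitted against inhibitor concentration to give Ki.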

[1] = Water solubility assay (pH 7.8 buffer); format: physicochemical
In short: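 DMSO stocks were diluted into 35 mM HEPES pH 7.8 to final 0–100 μM with 1% DMSO, in triplicate. Plates were shaken 18 h at 25 °C, then precipitation was detected as increased absorbance at 650 nm. Values give the concentration (μM) at which the compound remains in solution.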

[2] = protease-free PPIase assay, class symbols, read-out: CypA Ki
[3] = protease-free PPIase assay, class symbols, read-out: CypD Ki
[4] = 35 mM HEPES buffer, 35 mM HEPES pH 7.8, 1% DMSO, 25° C., 18 h, concentration at which compound remains in solution, read-out: Solubility

cyclophilin D (Cyp D), sequence (P30405 30-207): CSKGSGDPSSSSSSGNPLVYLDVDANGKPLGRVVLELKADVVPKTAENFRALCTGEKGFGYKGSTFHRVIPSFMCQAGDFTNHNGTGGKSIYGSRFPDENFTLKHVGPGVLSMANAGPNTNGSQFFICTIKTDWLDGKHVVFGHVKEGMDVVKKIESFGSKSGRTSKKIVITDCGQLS
T1 sequence (P62937 whole entry): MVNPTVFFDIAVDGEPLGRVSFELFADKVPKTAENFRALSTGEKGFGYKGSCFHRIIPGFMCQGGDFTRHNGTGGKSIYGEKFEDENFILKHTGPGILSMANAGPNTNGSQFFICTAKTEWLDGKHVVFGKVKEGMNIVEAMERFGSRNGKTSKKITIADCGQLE

Ki (cyclophilin A (Cyp A)) [nM] | Ki (cyclophilin D (Cyp D)) [nM] | solubility at 18 h ([1]; pH 7.8) [µM] | Ki (cyclophilin A (Cyp A); [2]) [nM] | Ki (cyclophilin D (Cyp D); [3]) [nM] | solubility at 18 h [1, 4] [µM] | SMILES
1 to 25 | 1 to 25 | 25 to 50 (≈ 33.2 to 66.4 µg/mL) |  |  |  | CC(C)C[C@@H]1C(=O)N[C@H](CC(C)C)C(=O)N(C)[C@H](C(C)C)C(=O)N(C)[C@H]([C@H](O)[C@H](C)CCN(C)c2ccccn2)C(=O)N[C@H]([C@@H](C)O)C(=O)N(C)CC(=O)N(C)[C@@H](CC(C)C)C(=O)N[C@H](CC(C)C)C(=O)N(C)[C@H](CC(C)C)C(=O)N[C@H](C)C(=O)O[C@@H](C(C)C)C(=O)N1C [Example 28, cyclo-[(3R,4R,5S)-4-(hydroxy)-3-methyl-5-(methylamino)-1-N-(methyl-pyridin-2-yl-amine)-hexanoic acid-Thr-Sar-MeLeu-Leu-MeLeu-Ala-D-Hiv-MeLeu-Leu-MeVal]] (cyclo([Hiv][dNMeL][dL][dNMeV][X27][d(aThr)][Sar][NMeL][dL][dNMeL][dA]))
25 to 100 | 25 to 100 | > 100 |  |  |  | CC(C)C[C@@H]1C(=O)N[C@H](CC(C)C)C(=O)N(C)[C@H](C(C)C)C(=O)N(C)[C@H]([C@H](O)[C@H](C)CCN2CCOC[C@H]2C)C(=O)N[C@H]([C@@H](C)O)C(=O)N(C)CC(=O)N(C)[C@@H](CC(C)C)C(=O)N[C@H](CC(C)C)C(=O)N(C)[C@H](CC(C)C)C(=O)N[C@H](C)C(=O)O[C@@H](C(C)C)C(=O)N1C [Example 29, cyclo-[(3R,4R,5S)-4-(hydroxy)-3-methyl-5-(methylamino)-1-N—((R)-3-Methyl-morpholine)-hexanoic acid-Thr-Sar-MeLeu-Leu-MeLeu-Ala-D-Hiv-MeLeu-Leu-MeVal]] (cyclo([Hiv][dNMeL][dL][dNMeV][X6][d(aThr)][Sar][NMeL][dL][dNMeL][dA]))
 |  |  | 25 to 100 | 1 to 25 | 10 to 25 (≈ 14.2 to 35.5 µg/mL) | CC(C)C[C@@H]1C(=O)N[C@H](CC(C)C)C(=O)N(C)[C@H](C(C)C)C(=O)N(C)[C@H]([C@H](O)[C@H](C)CCN(Cc2ccccn2)Cc2ccccn2)C(=O)N[C@H]([C@@H](C)O)C(=O)N(C)CC(=O)N(C)[C@@H](CC(C)C)C(=O)N[C@H](CC(C)C)C(=O)N(C)[C@H](CC(C)C)C(=O)N[C@H](C)C(=O)O[C@@H](C(C)C)C(=O)N1C [Example 30, cyclo-[(3R,4R,5S)-4-(hydroxy)-3-methyl-5-(methylamino)-1-N-(bis-pyridin-2-ylmethyl-amine)-hexanoic acid-Thr-Sar-MeLeu-Leu-MeLeu-Ala-D-Hiv-MeLeu-Leu-MeVal]] (cyclo([Hiv][dNMeL][dL][dNMeV][X13][d(aThr)][Sar][NMeL][dL][dNMeL][dA]))
 |  |  | 25 to 100 | 1 to 25 | 50 to 75 (≈ 67.1 to 101 µg/mL) | CC(C)C[C@@H]1C(=O)N[C@H](CC(C)C)C(=O)N(C)[C@H](C(C)C)C(=O)N(C)[C@H]([C@H](O)[C@H](C)CCN(C)Cc2ccccn2)C(=O)N[C@H]([C@@H](C)O)C(=O)N(C)CC(=O)N(C)[C@@H](CC(C)C)C(=O)N[C@H](CC(C)C)C(=O)N(C)[C@H](CC(C)C)C(=O)N[C@H](C)C(=O)O[C@@H](C(C)C)C(=O)N1C [Example 31, cyclo-[(3R,4R,5S)-4-(hydroxy)-3-methyl-5-(methylamino)-1-N-(methyl-pyridin-2-ylmethyl-amino)-hexanoic acid-Thr-Sar-MeLeu-Leu-MeLeu-Ala-D-Hiv-MeLeu-Leu-MeVal]] (cyclo([Hiv][dNMeL][dL][dNMeV][X29][d(aThr)][Sar][NMeL][dL][dNMeL][dA]))
1 to 25 | 1 to 25 | 25 to 50 (≈ 33.1 to 66.2 µg/mL) |  |  |  | CC(C)C[C@@H]1C(=O)N[C@H](CC(C)C)C(=O)N(C)[C@H](C(C)C)C(=O)N(C)[C@H]([C@H](O)[C@H](C)Cc2nc3ccccc3[nH]2)C(=O)N[C@H]([C@@H](C)O)C(=O)N(C)CC(=O)N(C)[C@@H](CC(C)C)C(=O)N[C@H](CC(C)C)C(=O)N(C)[C@H](CC(C)C)C(=O)N[C@H](C)C(=O)O[C@@H](C(C)C)C(=O)N1C [Example 33, cyclo-[(2R,3R,4S)-1-(1H-benzoimidazol-2-yl)-2-methyl-4-methylamino-3-hydroxy-pentanoic acid-Thr-Sar-MeLeu-Leu-MeLeu-Ala-D-Hiv-MeLeu-Leu-MeVal]] (cyclo([Hiv][dNMeL][dL][dNMeV][X22][d(aThr)][Sar][NMeL][dL][dNMeL][dA]))
 |  |  | 1 to 25 | 1 to 25 | 10 to 25 (≈ 13.8 to 34.5 µg/mL) | CC(C)C[C@@H]1C(=O)N[C@H](CC(C)C)C(=O)N(C)[C@H](C(C)C)C(=O)N(C)[C@H]([C@H](O)[C@H](C)CCN2CCC(c3ccccc3)CC2)C(=O)N[C@H]([C@@H](C)O)C(=O)N(C)CC(=O)N(C)[C@@H](CC(C)C)C(=O)N[C@H](CC(C)C)C(=O)N(C)[C@H](CC(C)C)C(=O)N[C@H](C)C(=O)O[C@@H](C(C)C)C(=O)N1C [Example 34, cyclo-[(3R,4R,5S)-4-(hydroxy)-3-methyl-5-(methylamino)-1-(4-phenyl-1-piperidyl)-hexanoic acid-Thr-Sar-MeLeu-Leu-MeLeu-Ala-D-Hiv-MeLeu-Leu-MeVal]] (cyclo([Hiv][dNMeL][dL][dNMeV][X28][d(aThr)][Sar][NMeL][dL][dNMeL][dA]))
25 to 100 | 1 to 25 | 25 to 50 (≈ 33.2 to 66.3 µg/mL) |  |  |  | CC(C)C[C@@H]1C(=O)N[C@H](CC(C)C)C(=O)N(C)[C@H](C(C)C)C(=O)N(C)[C@H]([C@H](O)[C@H](C)CCNCc2ccccc2)C(=O)N[C@H]([C@@H](C)O)C(=O)N(C)CC(=O)N(C)[C@@H](CC(C)C)C(=O)N[C@H](CC(C)C)C(=O)N(C)[C@H](CC(C)C)C(=O)N[C@H](C)C(=O)O[C@@H](C(C)C)C(=O)N1C [Example 35, cyclo-[(3R,4R,5S)-1-benzylamino-3-methyl-5-methylamino-4-hydroxy-hexanoic acid-Thr-Sar-MeLeu-Leu-MeLeu-Ala-D-Hiv-MeLeu-Leu-MeVal]] (cyclo([Hiv][dNMeL][dL][dNMeV][X18][d(aThr)][Sar][NMeL][dL][dNMeL][dA]))
1 to 25 | 1 to 25 | 25 to 50 (≈ 33.5 to 67 µg/mL) |  |  |  | CC(C)C[C@@H]1C(=O)N[C@H](CC(C)C)C(=O)N(C)[C@H](C(C)C)C(=O)N(C)[C@H]([C@H](O)[C@H](C)CC(=O)NCc2ccccc2)C(=O)N[C@H]([C@@H](C)O)C(=O)N(C)CC(=O)N(C)[C@@H](CC(C)C)C(=O)N[C@H](CC(C)C)C(=O)N(C)[C@H](CC(C)C)C(=O)N[C@H](C)C(=O)O[C@@H](C(C)C)C(=O)N1C [Example 36, cyclo-[(3R,4R,5S)-1-benzylcarbamoyl-3-methyl-5-methylamino-4-hydroxy-pentanoic acid-Thr-Sar-MeLeu-Leu-MeLeu-Ala-D-Hiv-MeLeu-Leu-MeVal]] (cyclo([Hiv][dNMeL][dL][dNMeV][X9][d(aThr)][Sar][NMeL][dL][dNMeL][dA]))
25 to 100 | 1 to 25 | > 100 |  |  |  | CC(C)C[C@@H]1C(=O)N[C@H](CC(C)C)C(=O)N(C)[C@H](C(C)C)C(=O)N(C)[C@H]([C@H](O)[C@H](C)CCNC(C)C)C(=O)N[C@H]([C@@H](C)O)C(=O)N(C)CC(=O)N(C)[C@@H](CC(C)C)C(=O)N[C@H](CC(C)C)C(=O)N(C)[C@H](CC(C)C)C(=O)N[C@H](C)C(=O)O[C@@H](C(C)C)C(=O)N1C [Example 37, cyclo-[(3R,4R,5S)-4-hydroxy-1-isopropylamino-3-methyl-5-methylamino-hexanoic acid-Thr-Sar-MeLeu-Leu-MeLeu-Ala-D-Hiv-MeLeu-Leu-MeVal]] (cyclo([Hiv][dNMeL][dL][dNMeV][X25][d(aThr)][Sar][NMeL][dL][dNMeL][dA]))
25 to 100 | 1 to 25 | 50 to 75 (≈ 66 to 99.1 µg/mL) |  |  |  | CC(=O)N(CC[C@@H](C)[C@@H](O)[C@@H]1C(=O)N[C@H]([C@@H](C)O)C(=O)N(C)CC(=O)N(C)[C@@H](CC(C)C)C(=O)N[C@H](CC(C)C)C(=O)N(C)[C@H](CC(C)C)C(=O)N[C@H](C)C(=O)O[C@@H](C(C)C)C(=O)N(C)[C@H](CC(C)C)C(=O)N[C@H](CC(C)C)C(=O)N(C)[C@H](C(C)C)C(=O)N1C)C(C)C [Example 38, cyclo-[(3R,4R,5S)-1-(acetyl-isopropyl-amino)-4-hydroxy-3-methyl-5-methylamino-hexanoic acid-Thr-Sar-MeLeu-Leu-MeLeu-Ala-D-Hiv-MeLeu-Leu-MeVal]] (cyclo([Hiv][dNMeL][dL][dNMeV][X32][d(aThr)][Sar][NMeL][dL][dNMeL][dA]))
100 to 300 | 25 to 100 | > 100 |  |  |  | CC(C)C[C@@H]1C(=O)N[C@H](CC(C)C)C(=O)N(C)[C@H](C(C)C)C(=O)N(C)[C@H]([C@H](O)[C@H](C)CCN2CCCCC2CO)C(=O)N[C@H]([C@@H](C)O)C(=O)N(C)CC(=O)N(C)[C@@H](CC(C)C)C(=O)N[C@H](CC(C)C)C(=O)N(C)[C@H](CC(C)C)C(=O)N[C@H](C)C(=O)O[C@@H](C(C)C)C(=O)N1C (stereo partly drawn) [Example 39, cyclo-[(2R,3R,4S)-4-hydroxy-1-(2-hydroxymethyl-piperidin-1-yl)-3-methyl-5-methylamino-hexanoic acid-Thr-Sar-MeLeu-Leu-MeLeu-Ala-D-Hiv-MeLeu-Leu-MeVal]] (cyclo([Hiv][dNMeL][dL][dNMeV][X15][d(aThr)][Sar][NMeL][dL][dNMeL][dA]))
